According to US8309558B2, “Compounds for the treatment of hepatitis C” (Bristol-Myers Squibb Company, priority 2008, dated 2012):
Read-outs that look alike come from different tables or passages of the source.

What was measured:
[1] = biological target: T1, HCV NS5B RdRp genotype 1b (Hepatitis C virus genotype 1b, UniProt Q9WMX2); assay: Standard HCV NS5B RdRp enzyme assay; format: biochemical; conditions: HCV NS5B RdRp genotype 1b, read-out: IC50
T1 construct: The protein was expressed with an 18 amino acid C-terminal truncation to enhance the solubility; made in house; host or cells: E. coli BL21(DE3), pET21a vector
T1 sequence (Q9WMX2 2420-2992): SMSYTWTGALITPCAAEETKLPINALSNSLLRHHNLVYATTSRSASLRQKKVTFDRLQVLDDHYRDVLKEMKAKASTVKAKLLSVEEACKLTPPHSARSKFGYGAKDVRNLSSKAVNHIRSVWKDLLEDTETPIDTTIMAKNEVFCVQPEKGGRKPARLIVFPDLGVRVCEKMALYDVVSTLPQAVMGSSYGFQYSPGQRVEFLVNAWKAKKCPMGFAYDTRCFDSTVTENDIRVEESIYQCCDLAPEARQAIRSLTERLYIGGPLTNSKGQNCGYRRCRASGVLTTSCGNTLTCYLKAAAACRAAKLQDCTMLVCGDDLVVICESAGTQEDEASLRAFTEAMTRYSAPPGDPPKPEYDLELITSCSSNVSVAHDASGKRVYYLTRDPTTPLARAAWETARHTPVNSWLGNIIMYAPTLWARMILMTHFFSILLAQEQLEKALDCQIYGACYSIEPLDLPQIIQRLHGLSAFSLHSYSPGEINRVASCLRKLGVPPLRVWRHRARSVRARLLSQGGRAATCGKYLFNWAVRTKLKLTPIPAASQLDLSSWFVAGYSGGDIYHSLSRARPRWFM
In short: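 Radiometric SPA measuring 3H-UMP incorporation on polyA/biotin-oligo-dT12 (6 nM/180 nM), 0.29 μM total UTP. Enzyme: NS5B 1b lacking last 18 residues, 28 nM final, 30° C for 60 min in 20 mM Hepes pH 7.5, 2.5 mM MgCl2, 2% DMSO. IC50 from seven-point curves.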

[2] = test system: HCV replicon cells; assay: HCV replicon FRET / luciferase assay (96-well plates); format: cell-based; conditions: Hepatitis C virus, HCV replicon, read-out: EC50
In short: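 Readout was NS3 protease cleavage of an EDANS/DABCYL FRET peptide (20 μM final) in lysed HCV replicon cells, or Renilla luciferase in reporter replicons. Background came from wells with the highest level of control protease inhibitor. EC50 marked the concentration giving 50% signal reduction.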

SMILES: CNC(=O)c1c(-c2ccc(F)cc2)oc2ccc(-c3cc(C(=O)NC4(c5ncc(C)o5)CC4)c(OC)cc3C)cc12
- IC50 ([1]; Table 1d (class symbols)): < 0.02 µM
- EC50 ([2]; 24 h, Table 1d (class symbols)): 0.001 to 0.25 µM

SMILES: CNC(=O)c1c(-c2ccc(F)cc2)oc2ccc(-c3cc(C(=O)NC(C)(C)C)c(OC)cc3C)c(F)c12
- IC50 ([1]; Table 1b): < 0.25 µM
- EC50 ([2]; Table 1b): < 0.25 µM

SMILES: CNC(=O)c1c(-c2ccc(F)cc2)oc2ccc(-c3cccc(C(=O)Nc4cc(C)no4)c3)cc12
- IC50 ([1]; Table 1a): 1 to 10 µM
- EC50 ([2]; Table 1a): 1 to 10 µM

SMILES: CNC(=O)c1c(-c2ccc(F)cc2)oc2ccc(-c3cccc(C(=O)NC4CC4)c3)cc12
- IC50 ([1]; Table 1a): 0.25 to 1 µM
- EC50 ([2]; Table 1a): 0.25 to 1 µM

SMILES: CNC(=O)c1c(-c2ccc(F)cc2)oc2cc(N)c(-c3cc(C(=O)NC4(c5ccccc5)CC4)ccc3C)cc12
- IC50 ([1]; Table 1b): < 0.25 µM
- EC50 ([2]; Table 1b): < 0.25 µM

SMILES: CNC(=O)c1c(-c2ccc(F)cc2)oc2ccc(-c3cc(C(=O)NC4(c5ocnc5C)CC4)c(OC)cc3C)cc12
- IC50 ([1]; Table 1d (class symbols)): 0.001 to 0.25 µM
- EC50 ([2]; 24 h, Table 1d (class symbols)): 0.001 to 0.25 µM

SMILES: CNC(=O)c1c(-c2ccc(F)cc2)oc2ccc(-c3cc(C(=O)NC4(c5ccccn5)CC4)c(OCCC(N)=O)cc3C)cc12
- IC50 ([1]; Table 1d (class symbols)): < 0.02 µM
- EC50 ([2]; 24 h, Table 1d (class symbols)): 0.001 to 0.25 µM

SMILES: CNC(=O)c1c(-c2ccc(F)cc2)oc2ccc(-c3cccc(C(=O)N4CCC(c5ccc(F)cc5)C4)c3)cc12 (stereo not shown)
- IC50 ([1]; Table 1a): 0.25 to 1 µM
- EC50 ([2]; Table 1a): 0.25 to 1 µM

SMILES: CNC(=O)c1c(-c2ccc(F)cc2)oc2ccc(-c3ccc(C(=O)N4CCC[C@@H]4COC)cc3)cc12 [drawing 288]
- IC50 ([1]; Table 1a): > 10 µM
- EC50 ([2]; Table 1a): > 10 µM

SMILES: CNC(=O)c1c(-c2ccc(F)cc2)oc2ccc(-c3ccc(-c4ccc5cc[nH]c5c4)c(C(=O)NCC(C)C)c3)cc12
- IC50 ([1]; Table 1b): 0.25 to 1 µM
- EC50 ([2]; Table 1b): < 0.25 µM

SMILES: CNC(=O)c1c(-c2ccc(F)cc2)oc2cc([N+](=O)[O-])c(-c3cccc(C(=O)NCC(C)C)c3)cc12
- IC50 ([1]; Table 1b): < 0.25 µM
- EC50 ([2]; Table 1b): < 0.25 µM

SMILES: CNC(=O)c1c(-c2ccc(F)cc2)oc2ccc(-c3cc(C(=O)NCC(C)C)ccc3F)cc12
- IC50 ([1]; Table 1a): < 0.25 µM
- EC50 ([2]; Table 1a): < 0.25 µM

SMILES: CNC(=O)c1c(-c2ccc(F)cc2)oc2ccc(-c3cccc(C(=O)Nc4cccnc4)c3)cc12
- IC50 ([1]; Table 1a): < 0.25 µM
- EC50 ([2]; Table 1a): < 0.25 µM

SMILES: CNC(=O)c1c(-c2ccc(F)cc2)oc2ccc(-c3cccc(C(=O)Nc4nc(C)cs4)c3)cc12
- IC50 ([1]; Table 1a): < 0.25 µM
- EC50 ([2]; Table 1a): 0.25 to 1 µM

SMILES: CNC(=O)c1c(-c2ccc(F)cc2)oc2ccc(-c3cccc(C(=O)N[C@@H](C)c4cccc(OC)c4)c3)cc12
- IC50 ([1]; Table 1a): < 0.25 µM
- EC50 ([2]; Table 1a): < 0.25 µM

SMILES: CNC(=O)c1c(-c2ccc(F)cc2)oc2ccc(-c3cc(C(=O)NC4(c5ccccn5)CC4)c(OC(C)C)cc3C)cc12
- IC50 ([1]; Table 1b): < 0.25 µM
- EC50 ([2]; Table 1b): < 0.25 µM

SMILES: CNC(=O)c1c(-c2ccc(F)cc2)oc2ccc(-c3cccc(C(=O)NCc4ccccc4N)c3)cc12
- IC50 ([1]; Table 1a): 1 to 10 µM
- EC50 ([2]; Table 1a): 1 to 10 µM

SMILES: CNC(=O)c1c(-c2ccc(F)cc2)oc2ccc(-c3ccc(C(=O)N4CCC[C@H]4CO)cc3)cc12
- IC50 ([1]; Table 1a): > 10 µM
- EC50 ([2]; Table 1a): > 10 µM

SMILES: CNC(=O)c1c(-c2ccc(F)cc2)oc2cc(N)c(-c3cc(C(=O)NCC(C)C)ccc3OC)cc12
- IC50 ([1]; Table 1b): < 0.25 µM
- EC50 ([2]; Table 1b): < 0.25 µM

SMILES: CNC(=O)c1c(-c2ccc(F)cc2)oc2ccc(-c3cccc(C(=O)Nn4c(C)nnc4C)c3)cc12
- IC50 ([1]; Table 1a): 0.25 to 1 µM
- EC50 ([2]; Table 1a): > 10 µM

SMILES: CNC(=O)c1c(-c2ccc(F)cc2)oc2ccc(-c3ccc(C(F)(F)F)c(Cl)c3)cc12
- IC50 ([1]; Table 1a): > 10 µM
- EC50 ([2]; Table 1a): > 1.23 µM

SMILES: CNC(=O)c1c(-c2ccc(F)cc2)oc2cc(N(CCO)S(C)(=O)=O)c(-c3cccc(C(=O)NC(C)(C)c4ccc(F)cc4)c3)cc12
- IC50 ([1]; Table 1b): < 0.25 µM
- EC50 ([2]; Table 1b): < 0.25 µM

SMILES: CNC(=O)c1c(-c2ccc(F)cc2)oc2ccc(-c3cccc(C(=O)NC4CCC(C)CC4)c3)cc12 (stereo not shown)
- IC50 ([1]; Table 1a): < 0.25 µM
- EC50 ([2]; Table 1a): < 0.25 µM

SMILES: CNC(=O)c1c(-c2ccc(F)cc2)oc2ccc(-c3cccc(C(=O)NC(C)(C)C(=O)NCC#N)c3)cc12
- IC50 ([1]; Table 1a): < 0.25 µM
- EC50 ([2]; Table 1a): 0.25 to 1 µM

SMILES: CNC(=O)c1c(-c2ccc(F)cc2)oc2ccc(-c3cc(OC)cc(C(=O)NCC(C)C)c3)cc12
- IC50 ([1]; Table 1b): 0.25 to 1 µM
- EC50 ([2]; Table 1b): 0.25 to 1 µM

SMILES: CNC(=O)c1c(-c2ccc(F)cc2)oc2ccc(-c3cc(C(=O)NC4(c5nc(C6CC6)no5)CC4)ccc3C)cc12
- IC50 ([1]; Table 1b): < 0.25 µM
- EC50 ([2]; Table 1b): < 0.25 µM

SMILES: CNC(=O)c1c(-c2ccc(F)cc2)oc2cc([N+](=O)[O-])c(-c3cccc(C(=O)NC4(c5ccccc5)CC4)c3)cc12
- IC50 ([1]; Table 1a): < 0.25 µM
- EC50 ([2]; Table 1a): < 0.25 µM

SMILES: CNC(=O)c1c(-c2ccc(F)cc2)oc2ccc(-c3ccccn3)cc12
- IC50 ([1]; Table 1a): 1 to 10 µM
- EC50 ([2]; Table 1a): 0.25 to 1 µM

SMILES: CNC(=O)c1c(-c2ccc(F)cc2)oc2ccc(-c3cc(C(=O)NC4(c5nnc(-c6ccncc6)[nH]5)CC4)ccc3C)cc12
- IC50 ([1]; Table 1b): < 0.25 µM
- EC50 ([2]; Table 1b): < 0.25 µM
